In patent US20080300280A1, “Cyanobenzene Compounds for Combating Animal Pests” (priority 2005, published 2008) one finds melting point and mortality data, which are given here for ten compounds.

In series [1] the test system is Cotton Aphid (aphis gossypii), mixed life stages. Put plainly: Cotton aphid (Aphis gossypii), mixed life stages, leaf-dip test on cotton plants. The class given is in vivo. The following applies: 120 h, 300 ppm, infested cotton cotyledons dipped 3 seconds, after 5 days, read-out: mortality of cotton aphid in comparison with untreated controls. The protocol: (§1) The active compounds were formulated in a mixture of 50 vol.-% acetone:50 vol.-% water. A nonionic surfactant (Kinetic®) was included in the solution at a volume of 0.01% v/v.
(§2) In the following tests, the formulated solutions of the active compounds were diluted to an active ingredient concentration of 300 ppm and the diluted solutions were applied in the below mentioned tests.
II.1 Cotton Aphid (aphis gossypii), Mixed Life Stages
Cotton plants at the cotyledon stage were infested prior to treatment by placing a heavily infested leaf from the main aphid colony on top of each cotyledon. The aphids were allowed to transfer overnight and the host leaf was removed. The infested cotyledons were then dipped and agitated in the test solution for 3 seconds and allowed to dry in a fume hood. Test plants were maintained under fluorescent lighting in a 24-hr photoperiod at 25° C. and 20-40% relative humidity. Aphid mortality on the treated plants, relative to mortality on untreated check plants, was determined after 5 days.

The subject of series [2] is Green Peach Aphid (Myzus persicae), mixed life stages. Put plainly: Green peach aphid (Myzus persicae), mixed life stages, leaf-dip test on bell pepper plants. The following applies: 120 h, 300 ppm, infested bell pepper leaves dipped 3 seconds, after 5 days, read-out: mortality of green peach aphid in comparison with untreated controls. The class given is in vivo. The protocol:
as §1, §2
II.2 Green Peach Aphid (Myzus persicae), Mixed Life Stages
Bell pepper plants at the first true-leaf stage were infested prior to treatment by placing heavily infested leaves from the main aphid colony on top of the treatment plants. The aphids were allowed to transfer overnight to accomplish an infestation of 30-40 aphids per plant and the host leaves were removed. The infested leaves of the test plants were then dipped and agitated in the test solution for 3 seconds and allowed to dry in a fume hood. Test plants were maintained under fluorescent lighting in a 24-hr photoperiod at 25° C. and 20-40% relative humidity. Aphid mortality on the treated plants, relative to mortality on untreated check plants, was determined after 5 days.

The next series has as its system Bean Aphid (Aphis fabae). Put plainly: Bean aphid (Aphis fabae), plant-dip test on nasturtium plants. The following applies: 72 h, 300 ppm, infested nasturtium plants dipped, after 3 days, read-out: mortality of bean aphid in comparison with untreated controls. The class given is in vivo. As for the experimental part:
as §1, §2
11.3 Bean Aphid (Aphis fabae)
Nasturtium plants grown in Metro mix in the 1st leaf-pair stage (variety ‘Mixed Jewel’) were infested with approximately 2-30 laboratory-reared aphids by placing infested cut plants on top of the test plants. The cut plants were removed after 24 hr. Each plant was dipped into the test solution to provide complete coverage of the foliage, stem, protruding seed surface and surrounding cube surface and allowed to dry in the fume hood. The treated plants were kept at about 25° C. with continuous fluorescent light. Aphid mortality is determined after 3 days.

On to `Cc1cccc(S(=O)(=O)n2cncn2)c1C#N` [Example 47, 2-Methyl-6-([1.2.4]-triazole-1-sulfonyl)-benzonitrile], for which the melting point lay within 142 to 144 °C.
For the compound `CCO/C(=N\S(=O)(=O)c1cccc(C)c1C#N)NC(C)C` [Example 29, N-(Isopropylamino-ethoxy-methylene)-2-cyano-3-methyl-benzenesulfonamide], the melting point is 139 to 142 °C.
In turn, `Cc1cccc(S(=O)(=O)n2cccn2)c1C#N` [Example 46, 2-Methyl-6-(pyrazole-1-sulfonyl)-benzonitrile] displayed a melting point of 99 to 104 °C.
Regarding `C#CCN(C(=O)CC)S(=O)(=O)c1cccc(C)c1C#N` [Example 8], the mortality at 300 ppm (in series [1]; in series [2]; in the series with Bean Aphid (Aphis fabae)) was at least 86% each time.
`C/C(=N\S(=O)(=O)c1cccc(C)c1C#N)C(C)(C)C` [Example 37, 2-Cyano-3-methyl-N-(1,2,2-trimethyl-propylidene)-benzenesulfonamide]: the mortality at 300 ppm (in series [1]; in series [2]; in the series with Bean Aphid (Aphis fabae)) was at least 86% each time.
`CCN(C(C)=O)S(=O)(=O)c1cccc(C)c1C#N` [Example 2, N-Acetyl-N-ethyl-2-cyano-3-methyl-benzene-sulfonamide]: the mortality at 300 ppm (in series [1]; in series [2]; with Bean Aphid (Aphis fabae)) was at least 86% each time.
In the case of `Cc1cccc(S(=O)(=O)NC(=O)C(C)C)c1C#N` [Example 14], the mortality at 300 ppm (in series [1]; in series [2]; in the series with Bean Aphid (Aphis fabae)) was at least 86% each time.
For `CCN(C(=O)C(F)(F)F)S(=O)(=O)c1cccc(C)c1C#N` [Example 6], the mortality at 300 ppm (in series [1]; in series [2]; in the series with Bean Aphid (Aphis fabae)) was at least 86% each time.
For the compound `CO/C(C)=N\S(=O)(=O)c1cccc(OC(F)F)c1C#N` [Example 36], the mortality at 300 ppm (in series [1]; in series [2]; in the series with Bean Aphid (Aphis fabae)) was at least 86% each time.
For the compound `CCN(C(=O)NC(C)C)S(=O)(=O)c1cccc(C)c1C#N` [Example 23], the mortality at 300 ppm (in series [1]; in series [2]; in the series on Bean Aphid (Aphis fabae)) was at least 86% in each case.
